Source: paper PMC8445441, “Elucidating the mechanism by which synthetic helper peptides sensitize Pseudomonas aeruginosa to multiple antibiotics” (PLoS Pathogens, 2021)
Several values for one entry are separate records, joined by “and”; a condition that tells them apart may be missing. Equal values may be shown once. Read-outs that look alike come from different tables or passages of the source. Positions of bridges follow the written chain, without caps; N, C: chain ends. Non-standard residues stand in square brackets, D forms with d. Residues, ends and D or L forms follow the SMILES beside them. *: point of attachment. Ileψ(thiazoline)Cys = CC[C@H](C)[C@H](N)C1=N[C@H](C(=O)*)CS1; dOrn = NCCC[C@@H](N)C(=O)O

Tests used:
P. aeruginosa PAO1 = experiment: microbe, parasite or virus in culture; conditions: for MIC: Pseudomonas aeruginosa, PAO1, 18 h
Method: (§1) The MIC tests were performed in triplicate using broth microdilution in accordance with Clinical and Laboratory Standards Institute (CLSI) recommendations (http://iacld.ir/DL/public/CLSI-2018-M100-S28.pdf). Briefly, drugs were two-fold diluted in MHB and mixed with an equal volume of bacterial suspensions containing approximately 1 × 10^6 CFU/mL in 96-well microliter plate. After 18 h incubation at 37 °C, the MIC values were defined as the lowest concentrations of antibiotics with no visible growth of bacteria. […] Otherwise, 1/4 MIC of the peptide was used in the combination. […] If needed, membrane compounds PG, PE, PC, CL or LPS, or membrane stabilizers MgCl2 or CaCl2, or efflux pumps inhibitor PAβN were added to the broth medium to clarify the effect of other substances on the synergy between peptide and antibiotics. All the tests were performed in triplicate.
The fractional inhibitory concentration (FIC) indices were calculated using the previously described formula FICI = FICa + FICb = MICac/MICa + MICbc/MICb. The FICI was interpreted according to EUCAST [65] as follows: synergistic, FICI≤0.5; additive, 0.5<FICI≤1; indifferent, 1<FICI<2; antagonistic, FICI ≥2. For the FICI calculations, twice the highest concentration tested was used in the cases where the MIC was not reached.

[1] = tested on: clinical P. aeruginosa isolates; experiment: microbe, parasite or virus in culture; conditions: for MIC: Pseudomonas aeruginosa, 18 h; for Antibiotic sensibility (MIC) of clinical P. aeruginosa isolate AUMC-Pa-1: strain AUMC-Pa-1; for Antibiotic sensibility (MIC) of clinical P. aeruginosa isolate AUMC-Pa-2: strain AUMC-Pa-2; for Antibiotic sensibility (MIC) of clinical P. aeruginosa isolate AUMC-Pa-3: strain AUMC-Pa-3; for Antibiotic sensibility (MIC) of clinical P. aeruginosa isolate AUMC-Pa-4: strain AUMC-Pa-4; for Antibiotic sensibility (MIC) of clinical P. aeruginosa isolate AUMC-Pa-5: strain AUMC-Pa-5; for Antibiotic sensibility (MIC) of clinical P. aeruginosa isolate AUMC-Pa-6: strain AUMC-Pa-6; for Antibiotic sensibility (MIC) of clinical P. aeruginosa isolate HM-214: strain HM-214; for Antibiotic sensibility (MIC) of clinical P. aeruginosa isolate NR-31040: strain NR-31040; for Antibiotic sensibility (MIC) of clinical P. aeruginosa isolate NR-31041: strain NR-31041
Method: The bacterial strains, primers and plasmids used in this study are listed in S5 Table. […] Bacteria were cultured in LB medium or cation-adjusted Muller-Hinton broth (CA-MHB) at 37 °C with agitation at 220 rpm. All the antibiotics and chemical compounds used in this study were purchased from Sigma-Aldrich.
as §1

[2] = S3 Table, PAO1, antibiotic + 4 μM D-11
[3] = read-out: Antibiotic sensibility (MIC) of clinical P. aeruginosa isolate AUMC-Pa-1, strain AUMC-Pa-1, antibiotic alone
[4] = read-out: Antibiotic sensibility (MIC) of clinical P. aeruginosa isolate AUMC-Pa-2, strain AUMC-Pa-2, antibiotic alone
[5] = read-out: Antibiotic sensibility (MIC) of clinical P. aeruginosa isolate AUMC-Pa-3, strain AUMC-Pa-3, antibiotic alone
[6] = read-out: Antibiotic sensibility (MIC) of clinical P. aeruginosa isolate AUMC-Pa-4, strain AUMC-Pa-4, antibiotic alone
[7] = read-out: Antibiotic sensibility (MIC) of clinical P. aeruginosa isolate AUMC-Pa-5, strain AUMC-Pa-5, antibiotic alone
[8] = read-out: Antibiotic sensibility (MIC) of clinical P. aeruginosa isolate AUMC-Pa-6, strain AUMC-Pa-6, antibiotic alone
[9] = read-out: Antibiotic sensibility (MIC) of clinical P. aeruginosa isolate HM-214, strain HM-214, antibiotic alone
[10] = read-out: Antibiotic sensibility (MIC) of clinical P. aeruginosa isolate NR-31040, strain NR-31040, antibiotic alone
[11] = read-out: Antibiotic sensibility (MIC) of clinical P. aeruginosa isolate NR-31041, strain NR-31041, antibiotic alone
[12] = read-out: MICa: the MIC of antibiotics
[13] = S3 Table, PAO1, antibiotic + 2 μM D-11
[14] = read-out: Antibiotic sensibility (MIC) of clinical P. aeruginosa isolate AUMC-Pa-1
[15] = read-out: Antibiotic sensibility (MIC) of clinical P. aeruginosa isolate AUMC-Pa-2
[16] = read-out: Antibiotic sensibility (MIC) of clinical P. aeruginosa isolate AUMC-Pa-3
[17] = read-out: Antibiotic sensibility (MIC) of clinical P. aeruginosa isolate AUMC-Pa-4
[18] = read-out: Antibiotic sensibility (MIC) of clinical P. aeruginosa isolate AUMC-Pa-5
[19] = read-out: Antibiotic sensibility (MIC) of clinical P. aeruginosa isolate AUMC-Pa-6
[20] = read-out: Antibiotic sensibility (MIC) of clinical P. aeruginosa isolate HM-214
[21] = read-out: Antibiotic sensibility (MIC) of clinical P. aeruginosa isolate NR-31040
[22] = read-out: Antibiotic sensibility (MIC) of clinical P. aeruginosa isolate NR-31041
[23] = S3 Table, antibiotic alone, PAO1

MICac: the MIC for the antibiotic in the combination (P. aeruginosa PAO1; S3 Table, PAO1, with 2 μM D-11)	MICac: the MIC for the antibiotic in the combination (P. aeruginosa PAO1; S3 Table, PAO1, with 4 μM D-11)	MIC [1, 3]	MIC [1, 4]	MIC [1, 5]	MIC [1, 6]	MIC [1, 7]	MIC [1, 8]	MIC [1, 9]	MIC [1, 10]	MIC [1, 11]	MICa: the MIC of antibiotics (P. aeruginosa PAO1; [23])	SMILES	FICI (P. aeruginosa PAO1; [2])	MIC (P. aeruginosa PAO1; [12])	FICI (P. aeruginosa PAO1; [13])	MIC [1, 14]	MIC [1, 15]	MIC [1, 16]	MIC [1, 17]	MIC [1, 18]	other results
>128/>128 μM	>128/>128 μM	> 128 µM	> 128 µM	> 128 µM	> 128 µM	> 128 µM	> 128 µM	> 128 µM	> 128 µM	> 128 µM		CC1(C)S[C@@H]2[C@H](NC(=O)[C@H](N)c3ccccc3)C(=O)N2[C@H]1C(=O)O [Ampicillin]	1.125								MIC (P. aeruginosa PAO1; read-out: MICa: the MIC of antibiotics, S3 Table, antibiotic alone, PAO1): > 128 µM
1 µM	1 µM	8 µM	0.5 µM	2 µM	2 µM	4 µM	4 µM	128 µM	4 µM	16 µM	2 µM	CO/N=C(\C(=O)N[C@@H]1C(=O)N2C(C(=O)[O-])=C(C[N+]3(C)CCCC3)CS[C@H]12)c1csc(N)n1 [Cefepime]	0.625		0.563						
												CN(C)C(=O)C(CCN1CCC(O)(c2ccc(Cl)cc2)CC1)(c1ccccc1)c1ccccc1 [Loperamide]		> 128 µM		> 128 µM	> 128 µM	> 128 µM	> 128 µM	> 128 µM	FICI (P. aeruginosa PAO1): 1.063 and 1.125; MICac: the MIC for the antibiotic in the combination (P. aeruginosa PAO1): >128/>128 μM; MIC [1, 19]: > 128 µM; MIC [1, 20]: > 128 µM; MIC [1, 21]: > 128 µM; MIC [1, 22]: > 128 µM
128 µM	128 µM										64 µM	NC[C@H]1O[C@H](O[C@H]2[C@H](O)[C@@H](O[C@H]3O[C@H](CO)[C@@H](O)[C@H](N)[C@H]3O)[C@H](N)C[C@@H]2N)[C@H](O)[C@@H](O)[C@@H]1O [Kanamycin]	2.125		2.063						Antibiotic sensibility (MIC) of clinical P. aeruginosa isolate AUMC-Pa-1 ([1]; antibiotic alone): 64 µM; Antibiotic sensibility (MIC) of clinical P. aeruginosa isolate AUMC-Pa-2 ([1]; antibiotic alone): 16 µM; Antibiotic sensibility (MIC) of clinical P. aeruginosa isolate AUMC-Pa-3 ([1]; antibiotic alone): 32 µM; Antibiotic sensibility (MIC) of clinical P. aeruginosa isolate AUMC-Pa-4 ([1]; antibiotic alone): 32 µM; Antibiotic sensibility (MIC) of clinical P. aeruginosa isolate AUMC-Pa-5 ([1]; antibiotic alone): 32 µM; Antibiotic sensibility (MIC) of clinical P. aeruginosa isolate AUMC-Pa-6 ([1]; antibiotic alone): 32 µM; Antibiotic sensibility (MIC) of clinical P. aeruginosa isolate HM-214 ([1]; antibiotic alone): 128 µM; Antibiotic sensibility (MIC) of clinical P. aeruginosa isolate NR-31040 ([1]; antibiotic alone): 128 µM; Antibiotic sensibility (MIC) of clinical P. aeruginosa isolate NR-31041 ([1]; antibiotic alone): 128 µM

SMILES	MICac: the MIC for the antibiotic in the combination (P. aeruginosa PAO1; S3 Table, PAO1, with 2 μM D-11)	MICac: the MIC for the antibiotic in the combination (P. aeruginosa PAO1; S3 Table, PAO1, with 4 μM D-11)	MIC [1, 3]	MIC [1, 4]	MIC [1, 5]	MIC [1, 6]	MIC [1, 7]	MIC [1, 8]	MIC [1, 9]	MIC [1, 10]	MIC [1, 11]	MICa: the MIC of antibiotics (P. aeruginosa PAO1; [23])	FICI (P. aeruginosa PAO1; [2])	MIC (P. aeruginosa PAO1; [12])	FICI (P. aeruginosa PAO1; [13])	MIC [1, 14]	MIC [1, 15]	MIC [1, 16]	MIC [1, 17]	MIC [1, 18]	other results
CCCCc1ccc(C(=O)O)nc1 [Fusaric Acid]	>128/>128 μM	>128/>128 μM											1.125	> 128 µM	1.063	> 128 µM	> 128 µM	> 128 µM	> 128 µM	> 128 µM	MIC [1, 19]: > 128 µM; MIC [1, 20]: > 128 µM; MIC [1, 21]: > 128 µM; MIC [1, 22]: > 128 µM
CC[C@H](C)[C@H](N)C1=N[C@H](C(=O)N[C@@H](CC(C)C)C(=O)N[C@H](CCC(=O)O)C(=O)N[C@H](C(=O)N[C@H]2CCCCNC(=O)[C@H](CC(N)=O)NC(=O)[C@@H](CC(=O)O)NC(=O)[C@H](Cc3cnc[nH]3)NC(=O)[C@@H](Cc3ccccc3)NC(=O)[C@H]([C@@H](C)CC)NC(=O)[C@@H](CCCN)NC2=O)[C@@H](C)CC)CS1 [Bacitracin] ({Ileψ(thiazoline)Cys}-L[dE]IK[dOrn]I[dF]H[dD]N; lactam 4-C (inferred); N-terminus assumed)	>128/>128 μM	>128/>128 μM										>128/>128 μM	1.125		1.063						Antibiotic sensibility (MIC) of clinical P. aeruginosa isolate AUMC-Pa-1 ([1]; antibiotic alone): >128 µM; Antibiotic sensibility (MIC) of clinical P. aeruginosa isolate AUMC-Pa-2 ([1]; antibiotic alone): >128 µM; Antibiotic sensibility (MIC) of clinical P. aeruginosa isolate AUMC-Pa-3 ([1]; antibiotic alone): >128 µM; Antibiotic sensibility (MIC) of clinical P. aeruginosa isolate AUMC-Pa-4 ([1]; antibiotic alone): >128 µM; Antibiotic sensibility (MIC) of clinical P. aeruginosa isolate AUMC-Pa-5 ([1]; antibiotic alone): >128 µM; Antibiotic sensibility (MIC) of clinical P. aeruginosa isolate AUMC-Pa-6 ([1]; antibiotic alone): >128 µM; Antibiotic sensibility (MIC) of clinical P. aeruginosa isolate HM-214 ([1]; antibiotic alone): >128 µM; Antibiotic sensibility (MIC) of clinical P. aeruginosa isolate NR-31040 ([1]; antibiotic alone): >128 µM; Antibiotic sensibility (MIC) of clinical P. aeruginosa isolate NR-31041 ([1]; antibiotic alone): >128 µM
